Assay results: ChEMBL document CHEMBL1201861, “Genomics of Drug Sensitity in Cancer screening data, Wellcome Trust Sanger Institute”

Assays:
Assay in all cases: cells
Details in all cases: Homo sapiens
MPP-89 = type: functional, cell-based;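 note: growth inhibition of human MPP-89 cells, read out with a cell viability assay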
Description: SANGER: Inhibition of human MPP-89 cell growth in a cell viability assay.

LAMA-84 = type: functional, cell-based;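 note: growth inhibition of LAMA-84 cells, read out with a cell viability assay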
Description: SANGER: Inhibition of human LAMA-84 cell growth in a cell viability assay.

KM-H2 = type: functional, cell-based;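 note: growth inhibition of KM-H2 cells, read out by a cell viability assay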
Description: SANGER: Inhibition of human KM-H2 cell growth in a cell viability assay.

EW-11 = type: functional, cell-based;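 note: growth inhibition of human EW-11 cells, measured with a cell viability assay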
Description: SANGER: Inhibition of human EW-11 cell growth in a cell viability assay.

KNS-81-FD = type: functional, cell-based;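 note: growth inhibition of KNS-81-FD cells, read out with a cell viability assay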
Description: SANGER: Inhibition of human KNS-81-FD cell growth in a cell viability assay.

D-263MG = type: functional, cell-based
Description: SANGER: Inhibition of human D-263MG cell growth in a cell viability assay.

no-10 = type: functional, cell-based;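 note: growth inhibition of no-10 cells, read out with a cell viability assay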
Description: SANGER: Inhibition of human no-10 cell growth in a cell viability assay.

AM-38 = type: functional, cell-based;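 note: growth inhibition of AM-38 cells of human origin, read out by a cell viability assay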
Description: SANGER: Inhibition of human AM-38 cell growth in a cell viability assay.

EKVX = type: functional, cell-based;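 note: growth inhibition of human EKVX cells, read out with a cell viability assay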
Description: SANGER: Inhibition of human EKVX cell growth in a cell viability assay.

QIMR-WIL = type: functional, cell-based;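 note: growth inhibition of QIMR-WIL cells, read out with a cell viability assay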
Description: SANGER: Inhibition of human QIMR-WIL cell growth in a cell viability assay.

EW-13 = type: functional, cell-based;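 note: growth inhibition of EW-13 cells, read out with a cell viability assay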
Description: SANGER: Inhibition of human EW-13 cell growth in a cell viability assay.

NCI-H23 = type: functional, cell-based;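 note: cell viability assay measuring growth inhibition of NCI-H23 cells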
Description: SANGER: Inhibition of human NCI-H23 cell growth in a cell viability assay.

KU812 cell line = type: functional, cell-based;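 note: growth inhibition of KU812 cells, read out with a cell viability assay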
Description: SANGER: Inhibition of human KU812 cell growth in a cell viability assay.

SH-4 = type: functional, cell-based;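 note: growth inhibition of SH-4 cells, read out with a cell viability assay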
Description: SANGER: Inhibition of human SH-4 cell growth in a cell viability assay.

HAL-01 = type: functional, cell-based;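 note: growth inhibition of human HAL-01 cells, read out with a cell viability assay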
Description: SANGER: Inhibition of human HAL-01 cell growth in a cell viability assay.

HEL = type: functional, cell-based;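 note: growth inhibition of HEL cells, read out with a cell viability assay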
Description: SANGER: Inhibition of human HEL cell growth in a cell viability assay.

TE-5 = type: functional, cell-based;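 note: inhibition of cell growth, read out by a cell viability assay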
Description: SANGER: Inhibition of human TE-5 cell growth in a cell viability assay.

COR-L88 = type: functional, cell-based;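 note: growth inhibition of COR-L88 cells, read out with a cell viability assay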
Description: SANGER: Inhibition of human COR-L88 cell growth in a cell viability assay.

EW-3 = type: functional, cell-based;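 note: cell viability assay read-out, IC50 reflects inhibition of growth of the EW-3 cells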
Description: SANGER: Inhibition of human EW-3 cell growth in a cell viability assay.

U-87 MG = type: functional, cell-based, U-87MG ATCC;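 note: growth inhibition of the cells measured with a viability assay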
Description: SANGER: Inhibition of human U-87-MG cell growth in a cell viability assay.

SBC-1 = type: functional, cell-based;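 note: cell viability assay measuring growth inhibition of the SBC-1 cell line, IC50 being the concentration that halves growth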
Description: SANGER: Inhibition of human SBC-1 cell growth in a cell viability assay.

RH-1 = type: functional, cell-based;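 note: growth inhibition of human RH-1 cells, read out with a cell viability assay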
Description: SANGER: Inhibition of human RH-1 cell growth in a cell viability assay.

MHH-NB-11 = type: functional, cell-based;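 note: growth inhibition of human MHH-NB-11 cells, read out by a cell viability assay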
Description: SANGER: Inhibition of human MHH-NB-11 cell growth in a cell viability assay.

DOHH-2 = type: functional, cell-based;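 note: growth inhibition of human DOHH-2 cells, read out with a cell viability assay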
Description: SANGER: Inhibition of human DOHH-2 cell growth in a cell viability assay.

SW684 = type: functional, cell-based;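 note: growth inhibition of human SW684 cells, measured by a cell viability assay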
Description: SANGER: Inhibition of human SW684 cell growth in a cell viability assay.

Lu-65 = type: functional, cell-based;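 note: growth inhibition of Lu-65 cancer cells, read out by a cell viability assay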
Description: SANGER: Inhibition of human LU-65 cell growth in a cell viability assay.

J-RT3-T3-5 = type: functional, cell-based;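 note: cell viability assay measuring growth inhibition of human J-RT3-T3-5 cells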
Description: SANGER: Inhibition of human J-RT3-T3-5 cell growth in a cell viability assay.

SCH = type: functional, cell-based;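 note: growth inhibition of human SCH cells, read out in a cell viability assay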
Description: SANGER: Inhibition of human SCH cell growth in a cell viability assay.

EW-16 = type: functional, cell-based;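 note: growth inhibition of human EW-16 cells, read out as cell viability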
Description: SANGER: Inhibition of human EW-16 cell growth in a cell viability assay.

TE-1 = type: functional, cell-based
Description: SANGER: Inhibition of human TE-1 cell growth in a cell viability assay.

SW872 = type: functional, cell-based;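 note: growth inhibition of SW872 cells, read out by a viability assay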
Description: SANGER: Inhibition of human SW872 cell growth in a cell viability assay.

TE-12 = type: functional, cell-based;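 note: growth inhibition of TE-12 cells, read out by a cell viability assay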
Description: SANGER: Inhibition of human TE-12 cell growth in a cell viability assay.

TGBC1TKB = type: functional, cell-based;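 note: growth inhibition of TGBC1TKB cells, read out by a cell viability assay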
Description: SANGER: Inhibition of human TGBC1TKB cell growth in a cell viability assay.

HCC2218 = type: functional, cell-based;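 note: cell viability assay read-out, with IC50 given as the concentration that inhibits growth of the cell line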
Description: SANGER: Inhibition of human HCC2218 cell growth in a cell viability assay.

K5 = type: functional, cell-based
Description: SANGER: Inhibition of human K5 cell growth in a cell viability assay.

COLO-684 = type: functional, cell-based
Description: SANGER: Inhibition of human COLO-684 cell growth in a cell viability assay.

COLO-824 = type: functional, cell-based
Description: SANGER: Inhibition of human COLO-824 cell growth in a cell viability assay.

NCI-H1770 = type: functional, cell-based;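 note: growth inhibition of NCI-H1770 cells determined with a viability readout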
Description: SANGER: Inhibition of human NCI-H1770 cell growth in a cell viability assay.

IST-MES1 = type: functional, cell-based;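 note: growth inhibition of IST-MES1 cells, measured with a cell viability assay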
Description: SANGER: Inhibition of human IST-MES1 cell growth in a cell viability assay.

C2BBe1 = type: functional, cell-based;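 note: growth inhibition of C2BBe1 cells, read out through a viability assay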
Description: SANGER: Inhibition of human C2BBe1 cell growth in a cell viability assay.

IST-MEL1 = type: functional, cell-based;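 note: growth inhibition of the cell line, read out with a cell viability assay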
Description: SANGER: Inhibition of human IST-MEL1 cell growth in a cell viability assay.

NEC8 = type: functional, cell-based;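 note: growth inhibition of human NEC8 cells, read out by a cell viability assay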
Description: SANGER: Inhibition of human NEC8 cell growth in a cell viability assay.

ES8 = type: functional, cell-based;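 note: growth inhibition of human ES8 cells, read out with a cell viability assay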
Description: SANGER: Inhibition of human ES8 cell growth in a cell viability assay.

no-11 = type: functional, cell-based;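 note: growth inhibition of human NO-11 cells, read out with a cell viability assay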
Description: SANGER: Inhibition of human no-11 cell growth in a cell viability assay.

ETK-1 = type: functional, cell-based;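 note: growth inhibition of human ETK-1 cells, read out with a cell viability assay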
Description: SANGER: Inhibition of human ETK-1 cell growth in a cell viability assay.

SHP77 = type: functional, cell-based, SHP-77;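 note: growth inhibition of human SHP-77 cells measured by a cell viability assay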
Description: SANGER: Inhibition of human SHP-77 cell growth in a cell viability assay.

LNCaP-Clone-FGC = type: functional, cell-based
Description: SANGER: Inhibition of human LNCaP-Clone-FGC cell growth in a cell viability assay.

SK-MEL-2 = type: functional, cell-based;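 note: growth inhibition of human SK-MEL-2 cells measured with a cell viability assay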
Description: SANGER: Inhibition of human SK-MEL-2 cell growth in a cell viability assay.

SW 954 = type: functional, cell-based;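 note: growth inhibition of SW954 human cancer cells, read out as cell viability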
Description: SANGER: Inhibition of human SW954 cell growth in a cell viability assay.

NCI-H747 = type: functional, cell-based;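 note: growth inhibition of human NCI-H747 cells, read out by a cell viability assay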
Description: SANGER: Inhibition of human NCI-H747 cell growth in a cell viability assay.

COLO-668 = type: functional, cell-based
Description: SANGER: Inhibition of human COLO-668 cell growth in a cell viability assay.

HDLM-2 = type: functional, cell-based;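 note: cell viability assay measuring suppression of HDLM-2 proliferation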
Description: SANGER: Inhibition of human HDLM-2 cell growth in a cell viability assay.

COLO-800 = type: functional, cell-based;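 note: growth inhibition of COLO-800 cells, read out with a cell viability assay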
Description: SANGER: Inhibition of human COLO-800 cell growth in a cell viability assay.

GI-1 = type: functional, cell-based;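 note: growth inhibition of human GI-1 cells, measured with a cell viability readout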
Description: SANGER: Inhibition of human GI-1 cell growth in a cell viability assay.

ES6 = type: functional, cell-based;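 note: growth inhibition of human ES6 cells, read out with a cell viability assay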
Description: SANGER: Inhibition of human ES6 cell growth in a cell viability assay.

SNU1 = type: functional, cell-based;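 note: growth inhibition of human NCI-SNU-1 cells, measured with a cell viability assay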
Description: SANGER: Inhibition of human NCI-SNU-1 cell growth in a cell viability assay.

NOS-1 = type: functional, cell-based
Description: SANGER: Inhibition of human NOS-1 cell growth in a cell viability assay.

ATN-1 = type: functional, cell-based
Description: SANGER: Inhibition of human ATN-1 cell growth in a cell viability assay.

HD-MY-Z = type: functional, cell-based
Description: SANGER: Inhibition of human HD-MY-Z cell growth in a cell viability assay.

NCI-H69 = type: functional, cell-based
Description: SANGER: Inhibition of human NCI-H69 cell growth in a cell viability assay.

KE-37 = type: functional, cell-based
Description: SANGER: Inhibition of human KE-37 cell growth in a cell viability assay.

SF-126 = type: functional, cell-based
Description: SANGER: Inhibition of human SF126 cell growth in a cell viability assay.

NB10 = type: functional, cell-based
Description: SANGER: Inhibition of human NB10 cell growth in a cell viability assay.

A498 = type: functional, cell-based
Description: SANGER: Inhibition of human A498 cell growth in a cell viability assay.

A704 = type: functional, cell-based
Description: SANGER: Inhibition of human A704 cell growth in a cell viability assay.

SMILES: Cc1ccc(NC(=O)c2cccc(C(C)(C)C#N)c2)cc1Nc1ccc2ncn(C)c(=O)c2c1
- IC50 (MPP-89): > 4000 nM
- IC50 (LAMA-84): 192 nM
- IC50 (KM-H2): > 4000 nM
- IC50 (EW-11): > 4000 nM
- IC50 (KNS-81-FD): > 4000 nM
- IC50 (D-263MG): > 4000 nM
- IC50 (no-10): > 4000 nM
- IC50 (AM-38): > 4000 nM
- IC50 (EKVX): > 4000 nM
- IC50 (QIMR-WIL): 3230 nM
- IC50 (EW-13): > 4000 nM
- IC50 (NCI-H23): > 4000 nM
- IC50 (KU812 cell line): > 4000 nM
- IC50 (SH-4): < 15.6 nM
- IC50 (HAL-01): > 4000 nM
- IC50 (HEL): > 4000 nM
- IC50 (TE-5): > 4000 nM
- IC50 (COR-L88): > 4000 nM
- IC50 (EW-3): > 4000 nM
- IC50 (U-87 MG): > 4000 nM
- IC50 (SBC-1): > 4000 nM
- IC50 (RH-1): > 4000 nM
- IC50 (MHH-NB-11): > 4000 nM
- IC50 (DOHH-2): 1990 nM
- IC50 (SW684): > 4000 nM
- IC50 (Lu-65): > 4000 nM
- IC50 (J-RT3-T3-5): > 4000 nM
- IC50 (SCH): > 4000 nM
- IC50 (EW-16): > 4000 nM
- IC50 (TE-1): > 4000 nM
- IC50 (SW872): 96.5 nM
- IC50 (TE-12): 1310 nM
- IC50 (TGBC1TKB): > 4000 nM
- IC50 (HCC2218): > 4000 nM
- IC50 (K5): 134 nM
- IC50 (COLO-684): > 4000 nM
- IC50 (COLO-824): > 4000 nM
- IC50 (NCI-H1770): > 4000 nM
- IC50 (IST-MES1): > 4000 nM
- IC50 (C2BBe1): > 4000 nM
- IC50 (IST-MEL1): 204 nM
- IC50 (NEC8): > 4000 nM
- IC50 (ES8): > 4000 nM
- IC50 (no-11): > 4000 nM
- IC50 (ETK-1): > 4000 nM
- IC50 (SHP77): > 4000 nM
- IC50 (LNCaP-Clone-FGC): > 4000 nM
- IC50 (SK-MEL-2): 3220 nM
- IC50 (SW 954): > 4000 nM
- IC50 (NCI-H747): 506 nM
- IC50 (COLO-668): > 4000 nM
- IC50 (HDLM-2): > 4000 nM
- IC50 (COLO-800): > 4000 nM
- IC50 (GI-1): > 4000 nM
- IC50 (ES6): > 4000 nM
- IC50 (SNU1): 448 nM
- IC50 (NOS-1): 92.7 nM
- IC50 (ATN-1): > 4000 nM
- IC50 (HD-MY-Z): 2940 nM
- IC50 (NCI-H69): > 4000 nM
- IC50 (KE-37): > 4000 nM
- IC50 (SF-126): > 4000 nM
- IC50 (NB10): > 4000 nM

SMILES: CC[C@@]1(O)C(=O)OCc2c1cc1n(c2=O)Cc2cc3ccccc3nc2-1 [CAMPTOTHECIN]
- IC50 (MPP-89): 27.2 nM
- IC50 (LAMA-84): 7.02 nM
- IC50 (KM-H2): 55.7 nM
- IC50 (EW-11): 2.66 nM
- IC50 (KNS-81-FD): 19.4 nM
- IC50 (D-263MG): 9.11 nM
- IC50 (A498): 7.08 nM
- IC50 (AM-38): 4.41 nM
- IC50 (QIMR-WIL): 0.775 nM
- IC50 (EW-13): 3.27 nM
- IC50 (NCI-H23): 40.7 nM
- IC50 (KU812 cell line): 8.36 nM
- IC50 (SH-4): 59.8 nM
- IC50 (HAL-01): 2.55 nM
- IC50 (HEL): 6.31 nM
- IC50 (TE-5): 7.38 nM
- IC50 (COR-L88): 40.9 nM
- IC50 (EW-3): 0.319 nM
- IC50 (U-87 MG): 6.63 nM
- IC50 (SBC-1): 27.8 nM
- IC50 (RH-1): 3.86 nM
- IC50 (MHH-NB-11): 0.842 nM
- IC50 (DOHH-2): 0.602 nM
- IC50 (SW684): > 100 nM
- IC50 (J-RT3-T3-5): 2.58 nM
- IC50 (SCH): > 100 nM
- IC50 (EW-16): 0.121 nM
- IC50 (TE-1): 35.1 nM
- IC50 (SW872): 24.2 nM
- IC50 (A704): 15.4 nM
- IC50 (HCC2218): 55.5 nM
- IC50 (K5): 3.2 nM
- IC50 (COLO-684): 13.8 nM
- IC50 (IST-MES1): 10.6 nM
- IC50 (C2BBe1): 2.44 nM
- IC50 (IST-MEL1): 3.81 nM
- IC50 (NEC8): 3.11 nM
- IC50 (ES8): 0.796 nM
- IC50 (ETK-1): 34.9 nM
- IC50 (SHP77): > 100 nM
- IC50 (LNCaP-Clone-FGC): 31 nM
- IC50 (SK-MEL-2): 54.8 nM
- IC50 (SW 954): 20.3 nM
- IC50 (COLO-668): 22.3 nM
- IC50 (COLO-800): 0.428 nM
- IC50 (GI-1): 3.37 nM
- IC50 (ES6): 88 nM
- IC50 (SNU1): 1.09 nM
- IC50 (NOS-1): 91.9 nM
- IC50 (ATN-1): 2.04 nM
- IC50 (HD-MY-Z): 1.63 nM
- IC50 (KE-37): 1.54 nM
- IC50 (SF-126): 2.84 nM
- IC50 (NB10): 0.614 nM
